The numbers were not newly measured in patent publication US12295916B2, “Process for making aqueous therapeutic particle having stable exterior water clustering with nanosized thickness” (priority 2019, dated 2025), which cites them from elsewhere.

A value given as a limit tells only on which side of the number the result lay.

The conditions of this data set: given by injection.

On to `CNC1(c2ccccc2Cl)CCCCC1=O` (centres unmarked) [Ketamine], for which the duration of effects is at most 25 min and the “time to begin of effects” value is “five”.
